Patent publication US20110151006A1, “STIMULI-RESPONSIVE HYDROGEL” (priority 2008, published 2011)

Experiments:
[1] = target: T1, hexahistidine-tagged GyrB (Escherichia coli, UniProt P0AES6); experiment: Antibiotic-dependent hydrogel formation (GyrB released into buffer); parameters: species or system E. coli; details: GyrB:coumermycin=2:1 or ten-fold molar excess of novobiocin; mixed with poly(AAm-co-Ni2+-NTA-AAm); 12 hours in PBS
T1 construct: GyrB migrates predominantly at its predicted size of 27 kDa; made in house; host or cells: E. coli BL21 STAR (DE3)
Source text: The protein is subsequently mixed with poly(AAm-co-Ni^2+-NTA-AAm) at a ratio of one GyrB per 11 Ni^2+ ions chelated in the polymer backbone.

[2] = target: T2, GyrB (gyrase subunit B) (Escherichia coli, UniProt P0AES6); experiment: Ultrafiltration study of coumermycin-induced GyrB dimerization; type: biochemical, E. coli; details: 50 kDa molecular weight cut-off filter; GyrB:coumermycin=2:1; GyrB without coumermycin gave 54%
T2 construct: GyrB migrates predominantly at its predicted size of 27 kDa; made in house; host or cells: E. coli BL21 STAR (DE3)

[3] = target: T2, GyrB (gyrase subunit B); experiment: Antibiotic-triggered GyrB dimerization, DMS crosslinking and SDS-PAGE; type: biochemical, E. coli; details: GyrB:coumermycin=2:1, mol/mol; DMS crosslinking; denaturing PAGE; dimer at 54 kDa
Description: The gene for E. coli gyrase subunit B (gyrB) is tagged with the coding sequence for six histidine residues. The coding region is placed under the control of the phage T7-derived promoter and expressed in E. coli as a soluble cytoplasmatic protein. GyrB is purified via the hexahistidine tag using Ni^2+-based affinity chromatography. Coumermycin-induced dimerization of genetically engineered GyrB is evaluated by incubating the protein in the presence or absence of coumermycin (GyrB:coumermycin=2:1, mol/mol) with subsequent addition of the amine-specific bifunctional crosslinking agent dimethyl-suberimidate (DMS) and analysis of the complexes on denaturing polyacrylamide gel electrophoresis. […]
Concentration of GyrB is analyzed by the Bradford method (Biorad, Muünchen, Germany, cat. no. 500-0006) using BSA as standard. […] Antibiotic-triggered dimerization of GyrB is analyzed by incubating GyrB in the presence coumermycin A1 (GyrB:coumermycin=2:1, mol/mol; Sigma, St. Louis, Mo., cat. no. C9270) for 30 min at room temperature following covalent crosslinking of the dimers by addition of dimethyl suberimidate×2HCl (DMS, SigmaAldrich, St. Louis, Mo., cat. no. 179523) at a 10-fold molar excess with respect to GyrB for 60 min at room temperature. The dimers are analyzed on SDS-PAGE. […]

coumermycin A1
GyrB-polymer complexes released into the buffer / hydrogel formation [1]: significantly reduced | GyrB protein in filtrate [2]: 2.8% | GyrB dimer formation [3]: substantial dimer formation
